Results taken from ChEMBL document CHEMBL1201862, “PubChem BioAssay data set” (2004).
Calls of active or inactive are those of the source.

Legend:
Type in all cases: functional
[1] = target: T1, Replicative DNA helicase DnaB (Mycobacterium tuberculosis, UniProt P9WMR3); assay: DnaB intein splicing inhibitors, dose response, biochemical, cell-free fluorescence (AID 449749)
T1 sequence (P9WMR3 whole entry): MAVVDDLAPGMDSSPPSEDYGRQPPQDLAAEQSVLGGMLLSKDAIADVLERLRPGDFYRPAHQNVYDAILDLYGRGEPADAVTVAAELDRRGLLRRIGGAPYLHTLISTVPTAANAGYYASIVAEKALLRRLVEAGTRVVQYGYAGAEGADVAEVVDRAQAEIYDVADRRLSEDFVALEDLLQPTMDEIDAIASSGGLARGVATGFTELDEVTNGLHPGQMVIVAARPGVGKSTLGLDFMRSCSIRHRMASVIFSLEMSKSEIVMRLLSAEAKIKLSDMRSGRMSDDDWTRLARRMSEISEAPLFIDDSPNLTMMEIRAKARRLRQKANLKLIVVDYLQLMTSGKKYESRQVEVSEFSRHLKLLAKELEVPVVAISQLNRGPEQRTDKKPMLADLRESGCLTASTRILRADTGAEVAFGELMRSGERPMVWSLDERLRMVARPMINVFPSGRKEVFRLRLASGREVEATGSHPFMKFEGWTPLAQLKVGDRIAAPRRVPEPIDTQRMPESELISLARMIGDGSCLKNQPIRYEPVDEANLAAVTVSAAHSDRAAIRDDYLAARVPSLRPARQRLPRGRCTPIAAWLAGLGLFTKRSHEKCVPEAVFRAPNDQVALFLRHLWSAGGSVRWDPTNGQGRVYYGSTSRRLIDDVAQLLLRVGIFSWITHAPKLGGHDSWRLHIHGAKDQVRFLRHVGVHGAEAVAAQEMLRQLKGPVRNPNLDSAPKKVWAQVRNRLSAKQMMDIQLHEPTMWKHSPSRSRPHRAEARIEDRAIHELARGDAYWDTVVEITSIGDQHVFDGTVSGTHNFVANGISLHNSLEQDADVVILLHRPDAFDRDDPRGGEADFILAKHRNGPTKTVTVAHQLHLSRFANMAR

[2] = reduction of Shn3 3'UTR-driven luciferase in osteoblasts – cell-based, Clone20 osteoblasts, firefly luciferase, cherry-picked, dose response (AID 624132);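 note: firefly luciferase luminescence from reporter carrying the Shn3 3'UTR in osteoblasts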
[3] = target: Dual specificity tyrosine-phosphorylation-regulated kinase 4 (Homo sapiens, UniProt Q9NR20)
[4] = target: Tyrosine-protein kinase Fer (Homo sapiens, UniProt P16591);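 note: FER tested as one member of a kinome panel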
Tyrosine-protein kinase Fer, sequence (P16591 whole entry): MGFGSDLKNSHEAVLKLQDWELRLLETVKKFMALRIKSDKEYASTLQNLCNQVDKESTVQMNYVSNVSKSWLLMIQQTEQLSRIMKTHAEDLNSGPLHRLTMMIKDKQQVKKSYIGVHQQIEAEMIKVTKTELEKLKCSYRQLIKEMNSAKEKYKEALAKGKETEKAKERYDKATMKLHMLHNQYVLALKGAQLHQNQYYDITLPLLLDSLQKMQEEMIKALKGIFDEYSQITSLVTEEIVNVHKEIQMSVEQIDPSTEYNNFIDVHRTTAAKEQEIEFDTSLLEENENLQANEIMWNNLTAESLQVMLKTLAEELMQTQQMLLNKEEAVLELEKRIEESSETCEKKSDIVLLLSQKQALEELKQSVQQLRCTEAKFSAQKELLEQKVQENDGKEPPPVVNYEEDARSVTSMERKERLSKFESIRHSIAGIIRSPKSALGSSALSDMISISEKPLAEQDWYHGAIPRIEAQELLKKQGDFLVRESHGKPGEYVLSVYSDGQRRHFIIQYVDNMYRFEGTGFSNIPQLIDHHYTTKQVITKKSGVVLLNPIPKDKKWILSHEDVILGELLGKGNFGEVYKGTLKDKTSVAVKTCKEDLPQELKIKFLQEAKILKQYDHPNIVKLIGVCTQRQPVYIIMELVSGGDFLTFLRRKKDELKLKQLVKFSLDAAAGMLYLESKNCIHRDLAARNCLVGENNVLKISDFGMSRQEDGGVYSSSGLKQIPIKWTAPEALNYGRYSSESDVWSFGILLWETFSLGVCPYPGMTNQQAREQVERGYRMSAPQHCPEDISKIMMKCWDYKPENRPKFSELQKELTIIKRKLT

Dual specificity tyrosine-phosphorylation-regulated kinase 4, sequence (Q9NR20 whole entry): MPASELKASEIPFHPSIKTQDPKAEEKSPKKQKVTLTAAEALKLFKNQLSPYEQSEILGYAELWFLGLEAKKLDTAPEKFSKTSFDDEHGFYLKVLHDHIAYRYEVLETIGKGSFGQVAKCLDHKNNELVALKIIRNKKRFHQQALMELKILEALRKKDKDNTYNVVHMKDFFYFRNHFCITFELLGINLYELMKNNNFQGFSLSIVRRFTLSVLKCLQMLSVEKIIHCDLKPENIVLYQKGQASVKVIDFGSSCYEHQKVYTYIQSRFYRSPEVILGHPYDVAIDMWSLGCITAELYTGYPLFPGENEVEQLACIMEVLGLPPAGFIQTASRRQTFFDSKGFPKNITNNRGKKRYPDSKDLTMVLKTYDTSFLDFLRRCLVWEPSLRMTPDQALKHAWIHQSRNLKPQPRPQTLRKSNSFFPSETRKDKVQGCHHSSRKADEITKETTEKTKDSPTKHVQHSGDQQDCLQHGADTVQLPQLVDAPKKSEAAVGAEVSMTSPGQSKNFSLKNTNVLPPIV

For `OCC[n+]1c2ccccc2nc2ccc(N3CCOCC3)cc21`, the AC50 [1] was > 380000 nM (inactive).

For `Cc1cc(NC(c2ccc(Cl)cc2)c2ccc3cccnc3c2O)no1` (centres undefined), the AC50 [2] was 1050 nM (active).

In the case of `CS(=O)(=O)N(Cc1ccc2[nH]c(=O)c3cccn3c2c1)C1CC1`, the Ki [3] is reported as 39.8 nM (active) and the Ki [4] is reported as > 1580 nM (inactive).
